Measured values from ChEMBL document CHEMBL1136822, “Synthesis, antiviral activity and pharmacokinetics of P1/P1' substituted 3-aminoindazole cyclic urea HIV protease inhibitors” (Bioorg Med Chem Lett, 2003).
pKi: −log10 of the molar value.

Columns and labels:
[1] = tested on: Human immunodeficiency virus 1; assay: Resistance factor of compound towards HIV-1 was measured as inhibitory concentration of compound required to inhibit viral RNA transcripts accumulation after infection in cells; format: functional
[2] = tested on: Human immunodeficiency virus 1; assay: Inhibitory concentration of compound against HIV HXB2 strain; format: functional
[3] = tested on: Human immunodeficiency virus 1; assay: Inhibitory concentration of compound against HIV abbott mutant virus 25-fold resistant to ritonavir; format: functional
[4] = biological target: Human immunodeficiency virus type 1 protease (Human immunodeficiency virus 1, UniProt Q72874); assay: Binding affinity against HIV-Protease was determined
[5] = Effect on increase in RNA IC90 value after HSA (45 mg/mL) and AAG (1 mg/mL) were determined in absence or presence of two plasma proteins (45 mg/mL human serum albumin and 1 mg/mL alpha-1-acid glycoprotein).; format: functional
[6] = species: Homo sapiens; assay: Protein binding adjusted IC90s for the I84V mutant was determined; format: functional
[7] = tested on: MT2; assay: Inhibitory concentration of compound against HIV […] mutant in MT2 cells; format: functional; conditions: Homo sapiens
[8] = tested on: MT2; assay: Inhibitory concentration of compound against HIV V82F/[…] mutant in MT2 cells; format: functional; conditions: Homo sapiens
[9] = Pharmacokinetic activity (Cmax) (10 mg/kg) was determined in dog; format: ADME, organism-based, Canis lupus familiaris; set-up: dose 10 mg/kg; conditions: in vivo
[10] = Oral bioavailability in dog (dose 10 mg/kg); format: ADME, organism-based, Canis lupus familiaris; conditions: in vivo
[11] = 8 hour trough Blood level in dog was measured after administration of compound; format: ADME, organism-based, Canis lupus familiaris; conditions: read-out: C 8 h
[12] = tested on: Human immunodeficiency virus 1; assay: Inhibitory concentration of compound against HIV vertex mutant virus 19-fold resistant to […]; format: functional
[13] = Half life period (10 mg/kg) was determined in dog; format: ADME, organism-based, Canis lupus familiaris; conditions: in vivo
[14] = Half life period in dog; format: ADME, organism-based, Canis lupus familiaris; conditions: in vivo
[15] = Pharmacokinetic activity (Cmax) in dog; format: ADME, organism-based, Canis lupus familiaris; conditions: in vivo
[16] = tested on: Human immunodeficiency virus 1; assay: Inhibitory concentration of compound against HIV vertex mutant virus 19-fold resistant to amprenavir; format: functional

`CCCCN1C(=O)N(Cc2ccc3[nH]nc(N)c3c2)[C@H](Cc2cc(C)cc(C)c2)[C@H](O)[C@@H](O)[C@H]1Cc1cc(C)cc(C)c1` gave an IC90 [1] of 66 nM, an IC90 [2] of 56 nM and an IC90 [3] of 7540 nM. It also gave a pKi [4] of 9.72.
`CCCCN1C(=O)N(Cc2ccc3[nH]nc(N)c3c2)[C@H](Cc2ccc(CC)cc2)[C@H](O)[C@@H](O)[C@H]1Cc1ccc(CC)cc1` showed an IC90 [1] of 10 nM, an IC90 [2] of 22 nM and an IC90 [3] of 4030 nM. The Fold shift [5] was 22, the IC90 [6] was 220 nM and the IC90 [7] was 260 nM. The IC90 [8] was > 1800 nM and the pKi [4] was 10.03.
For `Cc1ccc(C[C@@H]2[C@H](O)[C@@H](O)[C@@H](Cc3ccc(C)cc3)N(Cc3ccc4[nH]nc(N)c4c3)C(=O)N2Cc2ccccc2)cc1`, the Cmax [9] was 3.6 µM, the bioavailability [10] was 29% and the concentration at 8 h [11] was 0.35 µM. The IC90 [12] was 24 nM, the IC90 [1] was 12 nM and the IC90 [2] was 17 nM. For the same compound, the IC90 [3] was 1880 nM, the Fold shift [5] was 16 and the IC90 [6] was 192 nM. For the same compound, the IC90 [7] was 310 nM, the IC90 [8] was > 1700 nM and the pKi [4] was 10.33. For the same compound, the half-life [13] was 3.9 h.
Work on `Cc1cccc(C[C@@H]2[C@H](O)[C@@H](O)[C@@H](Cc3cccc(C)c3)N(Cc3ccc4[nH]nc(N)c4c3)C(=O)N2Cc2ccccc2)c1` yielded a Cmax [9] of 3.6 µM, a bioavailability [10] of 20% and a half-life [14] of 3.9 h. It also gave a concentration at 8 h [11] of 0.35 µM, an IC90 [1] of 25 nM and an IC90 [2] of 26 nM. It also gave an IC90 [3] of 1760 nM, a Fold shift [5] of 12 and an IC90 [6] of 300 nM. The IC90 [7] was 104 nM, the IC90 [8] was 2680 nM and the pKi [4] was 10.21.
`Nc1n[nH]c2ccc(CN3C(=O)N(Cc4ccccc4)[C@H](Cc4ccccc4)[C@H](O)[C@@H](O)[C@H]3Cc3ccccc3)cc12` gave a bioavailability [10] of 60%, a concentration at 8 h [11] of 2.8 µM and a half-life [13] of 3.5 h. For the same compound, the Cmax [15] was 9.6 µM.
For `CCCCN1C(=O)N(Cc2ccc3[nH]nc(N)c3c2)[C@H](Cc2ccc(C)cc2)[C@H](O)[C@@H](O)[C@H]1Cc1ccc(C)cc1`, the bioavailability [10] was 23%, the half-life [14] was 1.6 h and the concentration at 8 h [11] was 0.07 µM. For the same compound, the IC90 [12] was 7 nM, the IC90 [1] was 12 nM and the IC90 [2] was 16 nM. It also gave an IC90 [3] of 1700 nM, a Fold shift [5] of 35 and an IC90 [6] of 420 nM. For the same compound, the IC90 [8] was 1750 nM, the pKi [4] was 10.43 and the Cmax [15] was 1.2 µM.
`CCCCN1C(=O)N(Cc2ccc3[nH]nc(N)c3c2)[C@H](Cc2ccccc2)[C@H](O)[C@@H](O)[C@H]1Cc1ccccc1` gave a bioavailability [10] of 57%, a half-life [14] of 7.7 h and a concentration at 8 h [11] of 7.2 µM. For the same compound, the IC90 [12] was 87 nM, the IC90 [1] was 56 nM and the IC90 [2] was 69 nM. The IC90 [3] was 1470 nM, the Fold shift [5] was 17 and the IC90 [6] was 952 nM. It also gave an IC90 [7] of 390 nM, an IC90 [8] of 1790 nM and a pKi [4] of 10.68. The Cmax [15] was 11.7 µM.
Work on `Nc1[nH]nc2ccc(CN3C(=O)N(Cc4ccccc4)[C@H](Cc4ccccc4)[C@H](O)[C@@H](O)[C@H]3Cc3ccccc3)cc12` yielded an IC90 [16] of 257 nM, an IC90 [1] of 62 nM and an IC90 [2] of 92 nM. The IC90 [3] was 1520 nM, the IC90 [6] was 496 nM and the IC90 [7] was 370 nM. It also gave an IC90 [8] of 2100 nM.
Compound `CCc1ccc(C[C@@H]2[C@H](O)[C@@H](O)[C@@H](Cc3ccc(CC)cc3)N(Cc3ccc4[nH]nc(N)c4c3)C(=O)N2Cc2ccccc2)cc1` has an IC90 [1] of 19 nM, an IC90 [2] of 81 nM and an IC90 [3] of 12600 nM. The Fold shift [5] was 13, the IC90 [6] was 247 nM and the IC90 [7] was 410 nM. The IC90 [8] was > 1600 nM and the pKi [4] was 10.14.
Work on `CCCCN1C(=O)N(Cc2ccc3[nH]nc(N)c3c2)[C@H](Cc2cccc(C)c2)[C@H](O)[C@@H](O)[C@H]1Cc1cccc(C)c1` yielded an IC90 [1] of 31 nM, an IC90 [2] of 54 nM and an IC90 [3] of 1600 nM. It also gave a Fold shift [5] of 25, an IC90 [6] of 775 nM and an IC90 [8] of 1600 nM. The pKi [4] was 10.35.
With `Cc1cc(C)cc(C[C@@H]2[C@H](O)[C@@H](O)[C@@H](Cc3cc(C)cc(C)c3)N(Cc3ccc4[nH]nc(N)c4c3)C(=O)N2Cc2ccccc2)c1` the IC90 [1] was 50 nM, the IC90 [2] was 100 nM and the IC90 [3] was > 7300 nM. The Fold shift [5] was 7, the IC90 [6] was 350 nM and the pKi [4] was 9.70.
